# Tested on: SMARTCAR-MTH1-wt-HiBiT (Jurkat.7 cells)
# Experiment: HiBit Lytic Assay (HiBit DC50, MTH1 degraders of Table 2)
# Assay type: cell-based, human
# Details: Jurkat.7 SMARTCAR-MTH1-wt-HiBiT cells, compound treatment time 4 hr, 11-point half log dose response
# How it was run: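 Jurkat.7 cells expressing SMARTCAR-MTH1-wt-HiBiT were treated at 37° C with 11-point half-log dilutions (top final 1000 nM or 833 nM, duplicates, 0.1% DMSO). Remaining HiBiT-tagged protein was read by Nano-Glo HiBiT lytic luminescence, normalized to media-only and DMSO controls.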
row,SMILES,DC50
1,"CNC(=O)c1cnc2ccc(NCCCCCCCCCCNC(=O)CNc3cccc4c3CN(C3CCC(=O)NC3=O)C4=O)cc2c1Nc1ccccc1 (stereo not shown) [Compound 441, 6-((10-(2-((2-(2,6-dioxopiperidin-3-yl)-1-oxoisoindolin-4-yl)amino)acetamido)decyl)amino)-N-methyl-4-(phenylamino)quinoline-3-carboxamide]",< 100 nM
2,"CNC(=O)c1cnc2ccc(NCCCCCCCCCCNC(=O)C(C)Oc3cccc4c3C(=O)N(C3CCC(=O)NC3=O)C4=O)cc2c1Nc1ccccc1 (stereo not shown) [Compound 442, 6-((10-(2-((2-(2,6-dioxopiperidin-3-yl)-1,3-dioxoisoindolin-4-yl)oxy)propanamido)decyl)amino)-N-methyl-4-(phenylamino)quinoline-3-carboxamide]",< 100 nM
3,"CNC(=O)c1cnc2ccc(NCCCCCCCCCCNC(=O)[C@@H](C)Nc3cccc4c3C(=O)N(C3CCC(=O)NC3=O)C4=O)cc2c1Nc1ccccc1 (stereo partly drawn) [Compound 443, 6-((10-((2R)-2-((2-(2,6-dioxopiperidin-3-yl)-1,3-dioxoisoindolin-4-yl)amino)propanamido)decyl)amino)-N-methyl-4-(phenylamino)quinoline-3-carboxamide]",< 100 nM
4,"CNC(=O)c1cnc2ccc(NCCCCCCCCCCNC(=O)C(C)Nc3cccc4c3C(=O)N(C3CCC(=O)NC3=O)C4=O)cc2c1Nc1ccccc1 (stereo not shown) [Compound 444, 6-((10-(2-((2-(2,6-dioxopiperidin-3-yl)-1,3-dioxoisoindolin-4-yl)amino)propanamido)decyl)amino)-N-methyl-4-(phenylamino)quinoline-3-carboxamide]",< 100 nM
5,"CNC(=O)c1cnc2ccc(NCCCCCCCCCCNC(=O)[C@H](C)Nc3cccc4c3C(=O)N(C3CCC(=O)NC3=O)C4=O)cc2c1Nc1ccccc1 (stereo partly drawn) [Compound 445, 6-((10-((2S)-2((2-(2,6-dioxopiperidin-3-yl)-1,3-dioxoisoindolin-4-yl)amino)propanamido)decyl)amino)-N-methyl-4-(phenylamino)quinoline-3-carboxamide]",< 100 nM
6,"CNC(=O)c1cnc2ccc(C(=O)NCCCCCCCCCNC(=O)COc3cccc4c3C(=O)N(C3CCC(=O)NC3=O)C4=O)cc2c1Nc1ccccc1 (stereo not shown) [Compound 446, N6-(9-(2-((2-(2,6-dioxopiperidin-3-yl)-1,3-dioxoisoindolin-4-yl)oxy)acetamido)nonyl)-N3-methyl-4-(phenylamino)quinoline-3,6-dicarboxamide]",< 100 nM
7,"CNC(=O)c1cnc2ccc(NCCCCCCCCCCNC(=O)CN(C)c3cccc4c3C(=O)N(C3CCC(=O)NC3=O)C4=O)cc2c1Nc1ccccc1 (stereo not shown) [Compound 447, 6-((10-(2-((2-(2,6-dioxopiperidin-3-yl)-1,3-dioxoisoindolin-4-yl)(methyl)amino)acetamido)decyl)amino)-N-methyl-4-(phenylamino)quinoline-3-carboxamide]",< 100 nM
8,"CNC(=O)c1cnc2ccc(NCCCCCCCCCCNC(=O)COc3cccc4c3C(=O)N(C3CCC(=O)NC3=O)C4=O)cc2c1NCc1ccccc1 (stereo not shown) [Compound 448, 4-(benzylamino)-6-((10-(2-((2-(2,6-dioxopiperidin-3-yl)-1,3-dioxoisoindolin-4-yl)oxy)acetamido)decyl)amino)-N-methylquinoline-3-carboxamide]",< 100 nM
9,"CNC(=O)c1cnc2ccc(NCCCCCCCCCCNC(=O)COc3cccc4c3C(=O)N(C3CCC(=O)NC3=O)C4=O)cc2c1Nc1ccccc1 (stereo not shown) [Compound 449, 6-((10-(2-((2-(2,6-dioxopiperidin-3-yl)-1,3-dioxoisoindolin-4-yl)oxy)acetamido)decyl)amino)-N-methyl-4-(phenylamino)quinoline-3-carboxamide]",< 100 nM
10,"CNC(=O)c1cnc2ccc(C(=O)NCCCCCCCCCCNC(=O)COc3cccc4c3C(=O)N(C3CCC(=O)NC3=O)C4=O)cc2c1Nc1ccccc1 (stereo not shown) [Compound 450, N6-(10-(2-((2-(2,6-dioxopiperidin-3-yl)-1,3-dioxoisoindolin-4-yl)oxy)acetamido)decyl)-N3-methyl-4-(phenylamino)quinoline-3,6-dicarboxamide]",< 100 nM
11,"CNC(=O)c1cnc2ccc(NCCCCCCCCCCNC(=O)CNc3cccc4c3C(=O)N(C3CCC(=O)NC3=O)C4=O)cc2c1Nc1ccccc1 (stereo not shown) [Compound 451, 6-((10-(2-((2-(2,6-dioxopiperidin-3-yl)-1,3-dioxoisoindolin-4-yl)amino)acetamido)decyl)amino)-N-methyl-4-(phenylamino)quinoline-3-carboxamide]",< 100 nM
12,"CCNC(=O)c1cnc2ccc(NCCCCCCCCCCNC(=O)COc3cccc4c3C(=O)N(C3CCC(=O)NC3=O)C4=O)cc2c1Nc1ccccc1 (stereo not shown) [Compound 452, 6-((10-(2-((2-(2,6-dioxopiperidin-3-yl)-1,3-dioxoisoindolin-4-yl)oxy)acetamido)decyl)amino)-N-ethyl-4-(phenylamino)quinoline-3-carboxamide]",< 100 nM
13,"CNC(=O)c1cnc2ccc(C(=O)NCCCCCCCCNC(=O)COc3cccc4c3C(=O)N(C3CCC(=O)NC3=O)C4=O)cc2c1Nc1ccccc1 (stereo not shown) [Compound 453, N6-(8-(2-((2-(2,6-dioxopiperidin-3-yl)-1,3-dioxoisoindolin-4-yl)oxy)acetamido)octyl)-N3-methyl-4-(phenylamino)quinoline-3,6-dicarboxamide]",< 100 nM
14,"CNC(=O)c1cnc2cc(OC)c(NCCCCCCCCCCNC(=O)COc3cccc4c3C(=O)N(C3CCC(=O)NC3=O)C4=O)cc2c1Nc1ccccc1 (stereo not shown) [Compound 454, 6-((10-(2-((2-(2,6-dioxopiperidin-3-yl)-1,3-dioxoisoindolin-4-yl)oxy)acetamido)decyl)amino)-7-methoxy-N-methyl-4-(phenylamino)quinoline-3-carboxamide]",< 100 nM
15,"CNC(=O)c1cnc2ccc(C(=O)NCCCCCCCCCCCCNC(=O)COc3cccc4c3C(=O)N(C3CCC(=O)NC3=O)C4=O)cc2c1Nc1ccccc1 (stereo not shown) [Compound 455, N6-(12-(2-((2-(2,6-dioxopiperidin-3-yl)-1,3-dioxoisoindolin-4-yl)oxy)acetamido)dodecyl)-N3-methyl-4-(phenylamino)quinoline-3,6-dicarboxamide]",< 100 nM
16,"CNC(=O)c1cnc2ccc(CNC(=O)CCCCCCCCNC(=O)COc3cccc4c3C(=O)N(C3CCC(=O)NC3=O)C4=O)cc2c1Nc1ccccc1 (stereo not shown) [Compound 456, 6-((9-(2-((2-(2,6-dioxopiperidin-3-yl)-1,3-dioxoisoindolin-4-yl)oxy)acetamido)nonanamido)methyl)-N-methyl-4-(phenylamino)quinoline-3-carboxamide]",< 100 nM
17,"CC(C)NC(=O)c1cnc2ccc(NCCCCCCCCCCNC(=O)COc3cccc4c3C(=O)N(C3CCC(=O)NC3=O)C4=O)cc2c1Nc1ccccc1 (stereo not shown) [Compound 457, 6-((10-(2-((2-(2,6-dioxopiperidin-3-yl)-1,3-dioxoisoindolin-4-yl)oxy)acetamido)decyl)amino)-N-isopropyl-4-(phenylamino)quinoline-3-carboxamide]",< 100 nM
18,"CNC(=O)c1cnc2ccc(C(=O)NCCCCCCNC(=O)COc3cccc4c3C(=O)N(C3CCC(=O)NC3=O)C4=O)cc2c1Nc1ccccc1 (stereo not shown) [Compound 458, N6-(6-(2-((2-(2,6-dioxopiperidin-3-yl)-1,3-dioxoisoindolin-4-yl)oxy)acetamido)hexyl)-N3-methyl-4-(phenylamino)quinoline-3,6-dicarboxamide]",< 100 nM
19,"CNC(=O)c1cnc2ccc(CC(=O)NCCCCCCCCNC(=O)COc3cccc4c3C(=O)N(C3CCC(=O)NC3=O)C4=O)cc2c1Nc1ccccc1 (stereo not shown) [Compound 459, 6-(2-((8-(2-((2-(2,6-dioxopiperidin-3-yl)-1,3-dioxoisoindolin-4-yl)oxy)acetamido)octyl)amino)-2-oxoethyl)-N-methyl-4-(phenylamino)quinoline-3-carboxamide]",< 100 nM
20,"NC(=O)c1cnc2ccc(NCCCCCCCCCCNC(=O)CNc3cccc4c3C(=O)N(C3CCC(=O)NC3=O)C4=O)cc2c1Nc1ccccc1 (stereo not shown) [Compound 464, 6-((10-(2-((2-(2,6-dioxopiperidin-3-yl)-1,3-dioxoisoindolin-4-yl)amino)acetamido)decyl)amino)-4-(phenylamino)quinoline-3-carboxamide]",< 100 nM
21,"NC(=O)c1cnc2ccc(NCCCCCCCCCCNC(=O)COc3cccc4c3C(=O)N(C3CCC(=O)NC3=O)C4=O)cc2c1Nc1ccccc1 (stereo not shown) [Compound 465, 6-((10-(2-((2-(2,6-dioxopiperidin-3-yl)-1,3-dioxoisoindolin-4-yl)oxy)acetamido)decyl)amino)-4-(phenylamino)quinoline-3-carboxamide]",< 100 nM
22,"NC(=O)c1cnc2ccc(NCCCCCCCCNC(=O)COc3cccc4c3C(=O)N(C3CCC(=O)NC3=O)C4=O)cc2c1Nc1ccccc1 (stereo not shown) [Compound 466, 6-((8-(2-((2-(2,6-dioxopiperidin-3-yl)-1,3-dioxoisoindolin-4-yl)oxy)acetamido)octyl)amino)-4-(phenylamino)quinoline-3-carboxamide]",< 100 nM
23,"NC(=O)c1cnc2ccc(NC(=O)CCCCCCCCCNC(=O)COc3cccc4c3C(=O)N(C3CCC(=O)NC3=O)C4=O)cc2c1Nc1ccccc1 (stereo not shown) [Compound 467, 6-(10-(2-((2-(2,6-dioxopiperidin-3-yl)-1,3-dioxoisoindolin-4-yl)oxy)acetamido)decanamido)-4-(phenylamino)quinoline-3-carboxamide]",< 100 nM
24,"CNC(=O)c1cnc2ccc(-c3ccc(C(=O)NCCCCNC(=O)CN(C)c4cccc5c4C(=O)N(C4CCC(=O)NC4=O)C5=O)cc3)cc2c1Nc1ccccc1 (stereo not shown) [Compound 471, 6-(4-((4-(2-((2-(2,6-dioxopiperidin-3-yl)-1,3-dioxoisoindolin-4-yl)(methyl)amino)acetamido)butyl)carbamoyl)phenyl)-N-methyl-4-(phenylamino)quinoline-3-carboxamide]",< 100 nM
25,"CNC(=O)c1cnc2ccc(-c3ccc(C(=O)NCCCNC(=O)CNc4cccc5c4C(=O)N(C4CCC(=O)NC4=O)C5=O)cc3)cc2c1Nc1ccccc1 (stereo not shown) [Compound 472, 6-(4-((3-(2-((2-(2,6-dioxopiperidin-3-yl)-1,3-dioxoisoindolin-4-yl)amino)acetamido)propyl)carbamoyl)phenyl)-N-methyl-4-(phenylamino)quinoline-3-carboxamide]",< 100 nM
